Reference: ChEMBL document CHEMBL3885861, “Open TG-GATES”

Species on record: Rattus norvegicus
Experiment: Open TG-GATES - Regimen: Daily Repeat
Format: toxicity, organism-based, Sprague-Dawley
Design: regimen Daily Repeat, gender Male, age 6 weeks
Settings: in vivo, po, route gavage; for APTT / Bas / Eos / Fbg / Hb / Ht / Lym / MCH / MCV / Mono / Neu / PT / Plat / RBC / Ret / WBC: tissue Blood; for KIDNEY_L / KIDNEY_R / KIDNEY_TOTAL: tissue Kidney; for LIVER: tissue Liver; for ALP / ALT / AST / BUN / CRE / Ca / Cl / DBIL / GLC / IP / K / LDH / Na / PL / RALB / TBIL / TP / gamma-GTP: tissue Plasma
[1] = 0 mg/kg, 72 h, dose level Control, time 3 day
[2] = 0 mg/kg, […], dose level Control, time 7 day
[3] = 0 mg/kg, […], dose level Control, time 14 day
[4] = 0 mg/kg, […], dose level Control, time 28 day

NC(=O)N1c2ccccc2C=Cc2ccccc21 [CARBAMAZEPINE]
TERMINAL_BW [1]: 235.3 g
APTT [1]: 19.1 s
Bas [1]: 0%
Eos [1]: 1%
Fbg [1]: 213.8 mg/dL
Hb [1]: 13.6 g/dL
Ht [1]: 40.2%
Lym [1]: 79%
MCH [1]: 21 pg
MCV [1]: 61.9 fL
Mono [1]: 3.6%
Neu [1]: 15.6%
PT [1]: 12.3 s
Plat [1]: 123.2 x10_4/uL
RBC [1]: 648.8 x10_4/ul
Ret [1]: 4.9%
WBC [1]: 95.6 x10_2/uL
KIDNEY_L [1]: 1.1 g
KIDNEY_R [1]: 1.1 g
KIDNEY_TOTAL [1]: 2.2 g
LIVER [1]: 11.5 g
ALP [1]: 1022.4 IU/L
ALT [1]: 41.4 IU/L
AST [1]: 77 IU/L
BUN [1]: 15.6 mg/dL
CRE [1]: 0.4 mg/dL
Ca [1]: 10.7 mg/dL
Cl [1]: 102.4 meq/L
DBIL [1]: 0.08 mg/dL
GLC [1]: 213.8 mg/dL
IP [1]: 7.8 mg/dL
K [1]: 3.8 meq/L
LDH [1]: 178.8 IU/L
Na [1]: 140.4 meq/L
PL [1]: 144 mg/dL
RALB [1]: 3.3 g/dL
TBIL [1]: 0.1 mg/dL
TP [1]: 5.6 g/dL
gamma-GTP [1]: 0.8 IU/L
TERMINAL_BW [2]: 265.1 g
TERMINAL_BW [3]: 321.1 g
TERMINAL_BW [4]: 388.8 g
APTT [2]: 21.2 s
Bas [2]: 0%
Eos [2]: 1%
Fbg [2]: 223 mg/dL
Hb [2]: 14 g/dL
Ht [2]: 40.8%
Lym [2]: 81%
MCH [2]: 20.8 pg
MCV [2]: 60.5 fL
Mono [2]: 2.4%
Neu [2]: 14.4%
PT [2]: 11.9 s
Plat [2]: 122.6 x10_4/uL
RBC [2]: 674.4 x10_4/ul
Ret [2]: 3.8%
WBC [2]: 90.9 x10_2/uL
APTT [3]: 22 s
Bas [3]: 0%
Eos [3]: 1%
Fbg [3]: 219 mg/dL
Hb [3]: 14.5 g/dL
Ht [3]: 41.7%
Lym [3]: 82.2%
MCH [3]: 20.7 pg
MCV [3]: 59.6 fL
Mono [3]: 2.6%
Neu [3]: 13.2%
PT [3]: 12.2 s
Plat [3]: 129 x10_4/uL
RBC [3]: 700.4 x10_4/ul
Ret [3]: 4.2%
WBC [3]: 120.8 x10_2/uL
APTT [4]: 20.4 s
Bas [4]: 0%
Eos [4]: 1.2%
Fbg [4]: 212.8 mg/dL
Hb [4]: 15.3 g/dL
Ht [4]: 43.3%
Lym [4]: 81%
MCH [4]: 20.1 pg
MCV [4]: 56.8 fL
Mono [4]: 2.4%
Neu [4]: 14.6%
PT [4]: 12.2 s
Plat [4]: 111.8 x10_4/uL
RBC [4]: 762 x10_4/ul
Ret [4]: 2.4%
WBC [4]: 105.6 x10_2/uL
KIDNEY_L [2]: 1.1 g
KIDNEY_R [2]: 1.1 g
KIDNEY_TOTAL [2]: 2.3 g
KIDNEY_L [3]: 1.3 g
KIDNEY_R [3]: 1.2 g
KIDNEY_TOTAL [3]: 2.5 g
KIDNEY_L [4]: 1.4 g
KIDNEY_R [4]: 1.4 g
KIDNEY_TOTAL [4]: 2.8 g
LIVER [2]: 12.2 g
LIVER [3]: 13.6 g
LIVER [4]: 15.2 g
ALP [2]: 993 IU/L
ALT [2]: 37.6 IU/L
AST [2]: 74 IU/L
BUN [2]: 16.8 mg/dL
CRE [2]: 0.4 mg/dL
Ca [2]: 10.5 mg/dL
Cl [2]: 102.4 meq/L
DBIL [2]: 0.1 mg/dL
GLC [2]: 218.2 mg/dL
IP [2]: 7.5 mg/dL
K [2]: 3.8 meq/L
LDH [2]: 218.6 IU/L
Na [2]: 140.6 meq/L
PL [2]: 158.6 mg/dL
RALB [2]: 3.5 g/dL
TBIL [2]: 0.2 mg/dL
TP [2]: 5.8 g/dL
gamma-GTP [2]: 1 IU/L
ALP [3]: 817.2 IU/L
ALT [3]: 36 IU/L
AST [3]: 64 IU/L
BUN [3]: 16.7 mg/dL
CRE [3]: 0.5 mg/dL
Ca [3]: 10.7 mg/dL
Cl [3]: 102.4 meq/L
DBIL [3]: 0.1 mg/dL
GLC [3]: 207.4 mg/dL
IP [3]: 7 mg/dL
K [3]: 3.8 meq/L
LDH [3]: 204.6 IU/L
Na [3]: 141.6 meq/L
PL [3]: 151.4 mg/dL
RALB [3]: 3.5 g/dL
TBIL [3]: 0.2 mg/dL
TP [3]: 5.9 g/dL
gamma-GTP [3]: 1 IU/L
ALP [4]: 739.6 IU/L
ALT [4]: 35.4 IU/L
AST [4]: 68.2 IU/L
BUN [4]: 18 mg/dL
CRE [4]: 0.5 mg/dL
Ca [4]: 10.3 mg/dL
Cl [4]: 102 meq/L
DBIL [4]: 0.1 mg/dL
GLC [4]: 224.8 mg/dL
IP [4]: 6.7 mg/dL
K [4]: 3.4 meq/L
LDH [4]: 182.6 IU/L
Na [4]: 141 meq/L
PL [4]: 147.8 mg/dL
RALB [4]: 3.4 g/dL
TBIL [4]: 0.2 mg/dL
TP [4]: 6.2 g/dL
gamma-GTP [4]: 1.2 IU/L
TERMINAL_BW (30 mg/kg, 72 h, dose level Low, time 3 day): 237.7 g
